From PMC10384936, “Identification and Biological Characterization of the Pyrazolo[3,4-d]pyrimidine Derivative SI388 Active as Src Inhibitor” (Pharmaceuticals, 2023)

What was measured:
[1] = target: T1, Src (Homo sapiens, UniProt P12931); assay: Src enzymatic assay (ADP-Glo kinase assay); assay type: biochemical; settings: for Ki: mean of at least three experiments, 100 μM ATP
T1 construct: purchased Merck-Millipore
Description: (§1) Src, Fyn, and Abl were purchased from Merck-Millipore. Reactions were performed according to the manufacturer’s instructions with minor modifications. All substrates were used at least at twice the concentration of apparent Km. In detail: Src reactions were performed using 500 μM Src-peptide (KVEKIGEGTYGVVYK), 100 μM ATP, and 0.00087% NP-40; Fyn reactions were performed using 360 μM Src-peptide (KVEKIGEGTYGVVYK), 200 μM ATP, and 0.0026% NP-40; Abl reactions were performed using 50 μM abltide (EAIYAAPFAKKK), 30 μM ATP, and 0.00087% NP-40. All reactions were performed using 10–50 ng of enzyme and 10% DMSO in 10 μL of kinase buffer (8 mM MOPS-NaOH pH7.0, 0.2 mM EDTA, 10 mM MgAc) at 30 °C for 10 min.
(§2) To avoid peptide adsorbing to the plastic surface, protein low-binding tubes were used. ADP-Glo kinase assay (Promega) was then used to detect kinase activity according to the manufacturer’s instructions with minor modifications. In detail, reactions were transferred to white 384 well-plates and stopped by adding 10 µL of ADP-Glo reagent (Promega) for 50 min at room temperature. A total of 20 μL of detection reagent (Promega) was then added for 30 min and the reaction read using a GloMax Discover microplate reader (Promega). Data were plotted using GraphPad Prism 5.0. IC50 values were obtained according to Equation (1):v = V/{1 + (I/IC50)} (1) where v is the measured reaction velocity, V is the apparent maximal velocity in the absence of inhibitor, I is the inhibitor concentration, and IC50 is the 50% inhibitory dose. Compounds tested were assumed to act as fully ATP-competitive inhibitors. Therefore, Ki values were calculated according to Equation (2):Ki = IC50/(1+ […]) (2) where Ki is the affinity of the inhibitor to the enzyme, S is the ATP concentration, and Km is the affinity of ATP calculated according to the Michaelis–Menten equation.

[2] = target: T2, Abl (Homo sapiens, UniProt P00519); assay: Abl enzymatic assay (ADP-Glo kinase assay); assay type: biochemical
T2 construct: purchased Merck-Millipore
T2 sequence (P00519 whole entry, species assumed): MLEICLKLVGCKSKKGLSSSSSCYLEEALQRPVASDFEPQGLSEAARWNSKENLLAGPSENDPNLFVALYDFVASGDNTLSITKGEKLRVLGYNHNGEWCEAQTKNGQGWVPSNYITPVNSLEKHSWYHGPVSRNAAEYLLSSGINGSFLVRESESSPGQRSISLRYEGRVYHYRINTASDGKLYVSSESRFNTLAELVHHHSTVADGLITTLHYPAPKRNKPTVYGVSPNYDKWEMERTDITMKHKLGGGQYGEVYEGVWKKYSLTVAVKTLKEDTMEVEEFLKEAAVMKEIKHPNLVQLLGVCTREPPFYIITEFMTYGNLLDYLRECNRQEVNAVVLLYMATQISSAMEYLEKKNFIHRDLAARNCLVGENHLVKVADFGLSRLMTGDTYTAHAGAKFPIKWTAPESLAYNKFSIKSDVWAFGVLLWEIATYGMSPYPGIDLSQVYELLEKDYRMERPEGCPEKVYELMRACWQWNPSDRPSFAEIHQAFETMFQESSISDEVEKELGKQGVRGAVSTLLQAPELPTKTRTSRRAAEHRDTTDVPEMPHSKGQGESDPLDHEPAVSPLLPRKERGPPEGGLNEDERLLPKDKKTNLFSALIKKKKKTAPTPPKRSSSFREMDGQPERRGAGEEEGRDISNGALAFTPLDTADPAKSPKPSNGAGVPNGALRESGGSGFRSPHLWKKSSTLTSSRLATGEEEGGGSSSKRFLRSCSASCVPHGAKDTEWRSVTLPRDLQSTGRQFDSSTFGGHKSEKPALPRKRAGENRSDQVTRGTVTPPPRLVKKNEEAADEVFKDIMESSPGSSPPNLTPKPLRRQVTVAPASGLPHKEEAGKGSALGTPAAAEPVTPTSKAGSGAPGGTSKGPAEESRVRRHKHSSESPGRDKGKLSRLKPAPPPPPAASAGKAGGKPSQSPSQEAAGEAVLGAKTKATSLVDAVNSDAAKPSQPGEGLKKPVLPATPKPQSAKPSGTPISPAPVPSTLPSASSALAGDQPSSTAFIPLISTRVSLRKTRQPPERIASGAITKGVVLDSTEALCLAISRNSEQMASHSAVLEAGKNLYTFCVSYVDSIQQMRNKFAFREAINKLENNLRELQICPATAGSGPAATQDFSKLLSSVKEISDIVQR
Description: as §1, §2

[3] = target: T3, Fyn (Homo sapiens, UniProt P06241); assay: Fyn enzymatic assay (ADP-Glo kinase assay); assay type: biochemical; settings: for Ki: mean of at least three experiments, 200 μM ATP
T3 construct: purchased Merck-Millipore
T3 sequence (P06241 whole entry, species assumed): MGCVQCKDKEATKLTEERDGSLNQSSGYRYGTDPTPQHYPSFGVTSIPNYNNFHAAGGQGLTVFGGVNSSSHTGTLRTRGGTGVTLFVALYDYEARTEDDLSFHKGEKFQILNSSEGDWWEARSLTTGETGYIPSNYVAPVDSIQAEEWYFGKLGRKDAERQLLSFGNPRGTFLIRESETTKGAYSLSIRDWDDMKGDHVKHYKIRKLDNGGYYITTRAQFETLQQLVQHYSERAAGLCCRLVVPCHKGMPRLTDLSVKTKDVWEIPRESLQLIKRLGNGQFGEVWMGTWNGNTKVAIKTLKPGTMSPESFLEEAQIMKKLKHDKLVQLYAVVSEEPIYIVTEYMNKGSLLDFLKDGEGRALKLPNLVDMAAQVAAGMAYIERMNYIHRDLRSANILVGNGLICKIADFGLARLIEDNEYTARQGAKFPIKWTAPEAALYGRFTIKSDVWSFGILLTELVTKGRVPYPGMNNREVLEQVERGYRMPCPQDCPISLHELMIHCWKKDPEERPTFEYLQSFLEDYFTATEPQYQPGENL
Description: as §1, §2

T1 sequence (P12931 whole entry, species assumed): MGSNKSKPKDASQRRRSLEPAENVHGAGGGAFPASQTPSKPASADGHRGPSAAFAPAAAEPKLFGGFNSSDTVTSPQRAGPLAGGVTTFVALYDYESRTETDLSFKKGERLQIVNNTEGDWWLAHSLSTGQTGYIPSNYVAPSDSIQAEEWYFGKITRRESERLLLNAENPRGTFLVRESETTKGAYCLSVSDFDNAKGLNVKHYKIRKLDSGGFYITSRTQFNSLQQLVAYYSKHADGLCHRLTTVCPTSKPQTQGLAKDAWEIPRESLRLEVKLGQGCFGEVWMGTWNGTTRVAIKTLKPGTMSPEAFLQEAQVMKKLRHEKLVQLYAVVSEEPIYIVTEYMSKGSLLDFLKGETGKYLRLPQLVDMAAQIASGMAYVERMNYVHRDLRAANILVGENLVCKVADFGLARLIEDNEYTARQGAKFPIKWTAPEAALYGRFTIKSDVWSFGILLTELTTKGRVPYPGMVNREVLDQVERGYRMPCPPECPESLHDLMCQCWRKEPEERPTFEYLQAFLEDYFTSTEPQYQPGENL

| SMILES | Activity towards Src in cell-free assay (in words) [1] | inhibition at 1 µM [1] | Activity towards Bcr-Abl in cell-free assay (in words) [2] | inhibition at 10 µM [2] | inhibition at 10 µM [1] | inhibition at 1 µM [3] | inhibition at 10 µM [3] | inhibition at 1 µM [2] | melting point | inhibition at 100 µM [1] | inhibition at 100 µM [3] | Ki [3] | Ki [1] |
| --- | --- | --- | --- | --- | --- | --- | --- | --- | --- | --- | --- | --- | --- |
| CCc1nc(Nc2ccccc2)c2cnn(CC(Cl)c3ccccc3)c2n1 (centres unmarked) [2h, 1-(2-Chloro-2-phenylethyl)-6-ethyl-N-phenyl-1H-pyrazolo[3,4-d]pyrimidin-4-amine] |  |  |  |  | 12% |  | 57% | 34% | 174 to 176 °C | 98.3% | 82% | 10.3 ± 3.13 µM |  |
| ClC(Cn1ncc2c(Nc3ccccc3)nc(C3CCCCC3)nc21)c1ccccc1 (centres unmarked) [2j, 1-(2-Chloro-2-phenylethyl)-6-cyclohexyl-N-phenyl-1H-pyrazolo[3,4-d]pyrimidin-4-amine] |  |  |  |  | 5% |  | 13% | 39% | 134 to 136 °C | 95.3% | 38% |  |  |
| FC(F)(F)c1nc(Nc2ccccc2)c2cnn(CC(Cl)c3ccccc3)c2n1 (centres unmarked) [2k, 1-(2-Chloro-2-phenylethyl)-N-phenyl-6-(trifluoromethyl)-1H-pyrazolo[3,4-d]pyrimidin-4-amine] |  |  |  | 39% | 50.3% |  | 47% |  | 139 to 141 °C | 99.2% | 66% | 3.79 ± 1.01 µM |  |
| ClC(Cn1ncc2c(Nc3ccccc3)nc(-c3ccccc3)nc21)c1ccccc1 (centres unmarked) [2n, 1-(2-Chloro-2-phenylethyl)-N,6-diphenyl-1H-pyrazolo[3,4-d]pyrimidin-4-amine] |  | 11% |  | 18% | 13% | 16% | 23% | 5% | 130 to 140 °C (dec.) |  |  |  |  |
| Clc1cccc(Nc2nc(-c3ccccc3)nc3c2cnn3CC(Cl)c2ccccc2)c1 (centres unmarked) [2o, 1-(2-Chloro-2-phenylethyl)-N-(3-chlorophenyl)-6-phenyl-1H-pyrazolo[3,4-d]pyrimidin-4-amine] |  |  |  |  |  |  | 8% |  | 82 to 84 °C |  |  |  |  |
| Cc1nc(Nc2ccccc2)c2cnn(CC(Cl)c3ccc(Cl)cc3)c2n1 (centres unmarked) [2q, 1-(2-Chloro-2-(4-chlorophenyl)ethyl)-6-methyl-N-phenyl-1H-pyrazolo[3,4-d]pyrimidin-4-amine] |  | 29% |  | 25% | 48% | 24% | 78% | 20% | 202 to 203 °C |  |  | 2.07 ± 1.1 µM | 16.5 ± 4 µM |
| CCc1nc(Nc2ccccc2)c2cnn(CC(Cl)c3ccc(Cl)cc3)c2n1 (centres unmarked) [2r, 1-(2-Chloro-2-(4-chlorophenyl)ethyl)-6-ethyl-N-phenyl-1H-pyrazolo[3,4-d]pyrimidin-4-amine] |  |  |  |  | 7.5% | 48% | 75% |  | 193 to 195 °C |  |  | 1.74 ± 0.71 µM |  |

Second part, the compound after the results:

| Activity towards Src in cell-free assay (in words) [1] | inhibition at 1 µM [1] | Activity towards Bcr-Abl in cell-free assay (in words) [2] | inhibition at 10 µM [2] | inhibition at 10 µM [1] | inhibition at 1 µM [3] | inhibition at 10 µM [3] | inhibition at 1 µM [2] | melting point | inhibition at 100 µM [1] | inhibition at 100 µM [3] | Ki [3] | Ki [1] | SMILES |
| --- | --- | --- | --- | --- | --- | --- | --- | --- | --- | --- | --- | --- | --- |
| inactive | 24% | inactive | 23% |  |  |  |  |  |  |  |  |  | CSc1nc(Nc2ccc(Cl)cc2)c2cnn(CC(Cl)c3ccccc3)c2n1 (centres unmarked) [2b, 1-(2-Chloro-2-phenylethyl)-N-(4-chlorophenyl)-6-(methylthio)-1H-pyrazolo[3,4-d]pyrimidin-4-amine] |
|  | 16% |  | 35% | 27% | 33% | 64% | 18% | 128 to 131 °C |  |  |  |  | CCSc1nc(Nc2ccccc2)c2cnn(CC(Cl)c3ccccc3)c2n1 (centres unmarked) [2c, 1-(2-Chloro-2-phenylethyl)-6-(ethylthio)-N-phenyl-1H-pyrazolo[3,4-d]pyrimidin-4-amine] |
|  |  |  | 24% | 34% |  | 8% |  |  | 99.5% | 26% |  |  | CC(C)Sc1nc(Nc2cccc(Cl)c2)c2cnn(CC(Cl)c3ccccc3)c2n1 (centres unmarked) [2d, 1-(2-Chloro-2-phenylethyl)-N-(3-chlorophenyl)-6-(isopropylthio)-1H-pyrazolo[3,4-d]pyrimidin-4-amine] |
|  |  |  | 26.3% |  |  |  |  | 117 to 118 °C |  |  |  |  | Clc1ccccc1Nc1nc(SCCN2CCOCC2)nc2c1cnn2CC(Cl)c1ccccc1 (centres unmarked) [2e, 1-(2-Chloro-2-phenylethyl)-N-(2-chlorophenyl)-6-((2-morpholinoethyl)thio)-1H-pyrazolo[3,4-d]pyrimidin-4-amine] |
|  |  |  | 67% | 79% |  |  | 3% | 238 to 239 °C |  |  |  |  | Cl.Oc1cc(Nc2nc(SCCN3CCOCC3)nc3c2cnn3CC(Cl)c2ccccc2)ccc1F (centres unmarked) [2f, 5-({1-(2-Chloro-2-phenylethyl)-6-[(2-morpholinoethyl)thio]-1H-pyrazolo[3,4-d]pyrimidin-4-yl)amino)-2-fluorophenol hydrochloride] |
|  | 43.3% |  | 83% | 93.6% |  |  | 33.5% | 146 to 149 °C |  |  |  |  | Oc1cc(Nc2nc(SCCN3CCOCC3)nc3c2cnn3CC(Cl)c2ccccc2)c(F)cc1F (centres unmarked) [2g, 5-((1-(2-Chloro-2-phenylethyl)-6-((2-morpholinoethyl)thio)-1H-pyrazolo[3,4-d]pyrimidin-4-yl)amino)-2,4-difluorophenol] |
|  |  |  |  | 56% |  | 15% |  | 189 to 190 °C | 98.8% | 19% |  |  | Clc1cccc(Nc2nc(C3CCCC3)nc3c2cnn3CC(Cl)c2ccccc2)c1 (centres unmarked) [2i, 1-(2-Chloro-2-phenylethyl)-N-(3-chlorophenyl)-6-cyclopentyl-1H-pyrazolo[3,4-d]pyrimidin-4-amine] |
|  |  |  |  |  | 19% | 10% | 40% | 164 to 166 °C |  |  |  |  | Fc1cccc(Nc2nc(C(F)(F)F)nc3c2cnn3CC(Cl)c2ccccc2)c1 (centres unmarked) [2l, 1-(2-Chloro-2-phenylethyl)-N-(3-fluorophenyl)-6-(trifluoromethyl)-1H-pyrazolo[3,4-d]pyrimidin-4-amine] |
|  |  |  | 18% | 67% | 2.5% | 20% | 15% | 88 to 90 °C |  |  |  |  | FC(F)(F)c1nc(Nc2cccc(Cl)c2)c2cnn(CC(Cl)c3ccccc3)c2n1 (centres unmarked) [2m, N-(3-Chlorophenyl)-1-(2-chloro-2-phenylethyl)-6-trifluoromethyl-1H-pyrazolo[3,4-d]pyrimidin-4-amine] |
|  | 14% |  | 12% | 55% | 15% | 60% |  | 227 to 230 °C |  |  | 2.68 ± 0.37 µM | 14.4 ± 4.4 µM | CSc1nc(Nc2ccccc2)c2cnn(CC(Cl)c3ccc(F)cc3)c2n1 (centres unmarked) [2p, 1-(2-Chloro-2-(4-fluorophenyl)ethyl)-6-(methylthio)-N-phenyl-1H-pyrazolo[3,4-d]pyrimidin-4-amine] |
|  |  |  |  |  |  |  |  | 154 to 156 °C |  |  | 10.2 ± 2.11 µM |  | CCCc1nc(Nc2ccccc2)c2cnn(CC(Cl)c3ccc(Cl)cc3)c2n1 (centres unmarked) [2s, 1-(2-Chloro-2-(4-chlorophenyl)ethyl)-N-phenyl-6-propyl-1H-pyrazolo[3,4-d]pyrimidin-4-amine] |
